#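 1) Cells in 96-well plates. 2) Compound, 48 h, 5 concentrations. 3) Linear interpolation between surrounding doses. 4) Unreached endpoint = highest concentration. TGI: total growth inhibition.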 Where a SMILES comes first, the peptide text is derived from it. [ ]: non-standard residue; d: D form. The star is where a group is joined. Bn2Val = CC(C)[C@@H](C(=O)*)N(Cc1ccccc1)Cc1ccccc1; NMeV = CN[C@H](C(=O)O)C(C)C; X29 = COc1ccc(CN*)c(OC)c1; dNMeA = CN[C@H](C)C(=O)O
# Key:
# Experiment in all cases: NCI tumour cell line growth inhibition, 48 h
# [1] = system: HOP-18 NSCLC
# [2] = system: SK-OV-3 ovarian
# [3] = system: SF-268 CNS
# [4] = system: SNB-78 CNS
# [5] = system: OVCAR-4 ovarian
# [6] = system: SF-295 CNS
# [7] = system: HCT-116 colon
# [8] = system: XF 498 CNS
# [9] = system: LXFL 529 NSCLC
# [10] = system: RXF-631 renal
# [11] = system: A498 renal
# [12] = system: BT-549 breast
# [13] = system: T-47D breast
Compound,TGI [1],TGI [2],TGI [3],TGI [4],TGI [5],TGI [6],TGI [7],TGI [8],TGI [9],TGI [10],TGI [11],TGI [12],TGI [13]
CCC(COC(=O)CC[C@@H](NC(=O)C(C)NC(=O)C(C)OC1C(O)C(CO)OC(OCc2ccccc2)C1NC(C)=O)C(N)=O)NC1c2ccccc2Nc2cccc([N+](=O)[O-])c21 (stereo partly drawn),> 100 µM,> 100 µM,> 100 µM,> 100 µM,> 100 µM,> 100 µM,> 100 µM,> 100 µM,> 100 µM,–,–,–,–
C#CCNC(=O)NCCCCC(NC(=O)OCc1ccccc1)C(=O)OCc1ccccc1 (stereo not drawn),> 100 µM,> 100 µM,–,> 100 µM,> 100 µM,> 100 µM,> 100 µM,40.8 µM,> 100 µM,> 100 µM,> 100 µM,–,–
CCCc1c(C(=O)OCC)[nH]c(-c2ccc(-c3[nH]c(C(=O)OCC)c(CCC)c3C(=O)OCC)s2)c1C(=O)OCC,> 100 µM,98.6 µM,> 100 µM,> 100 µM,> 100 µM,> 100 µM,> 100 µM,> 100 µM,> 100 µM,–,> 100 µM,–,–
CCOC(=O)C(C)Sc1nnc(COc2ccccc2OC)n1-c1ccccc1 (stereo not drawn),> 100 µM,> 100 µM,> 100 µM,> 100 µM,> 100 µM,> 100 µM,> 100 µM,–,> 100 µM,–,> 100 µM,–,–
CCOC(=O)c1cc2c(OCc3ccccc3)c(OC)cc3c2c(n1)N(c1ccc(OC)cc1)C(C)C3 (stereo not drawn),> 50 µM,> 50 µM,> 50 µM,–,> 50 µM,> 50 µM,> 50 µM,> 50 µM,> 50 µM,–,> 50 µM,–,–
CCCCCCCCCC(=O)N[C@@H](c1ccco1)[C@@H](O)C(=O)O[C@H]1C[C@@]2(O)[C@@H](OC(=O)c3ccccc3)[C@@H]3[C@]4(OC(C)=O)CO[C@@H]4C[C@H](O)[C@@]3(C)C(=O)[C@H](OC(C)=O)C(=C1C)C2(C)C,–,> 18.7 µM,24.5 µM,–,> 24.7 µM,0.211 µM,1.13 µM,–,–,–,10.3 µM,1.07 µM,1.42 µM
COc1ccc(CNC(=O)[C@@H]2CCCN2C(=O)[C@@H](C)N(C)C(=O)[C@H](C(C)C)N(C)C(=O)[C@@H](NC(=O)[C@H](C(C)C)N(Cc2ccccc2)Cc2ccccc2)C(C)C)c(OC)c1 (Bn2Val-V[NMeV][dNMeA]P-X29),–,63.2 µM,> 100 µM,–,14.4 µM,10.7 µM,9.62 µM,–,–,–,8.69 µM,7.72 µM,96 µM
Cc1ccnc2nc(N)ccc12,–,> 100 µM,> 100 µM,–,> 100 µM,> 100 µM,> 100 µM,–,–,–,> 100 µM,> 100 µM,> 100 µM
Cc1c2c(cc3c1C(=O)C(=O)C1=C3OC[C@@H]1C)C(C)(C)CCC2,32.3 µM,82.8 µM,35.4 µM,–,51.8 µM,27.8 µM,26.7 µM,55.7 µM,37.6 µM,–,59.6 µM,–,–
O=C(C#Cc1ccccc1)N1c2ccccc2CC1c1c[nH]c2ccccc12 (stereo not drawn),–,51 µM,–,36.9 µM,69.6 µM,49.7 µM,26.5 µM,–,27.7 µM,27.7 µM,73 µM,–,–
CCN(CC)CCCNC(=O)c1cc2cc(NC(=O)c3cc4cc([N+](=O)[O-])ccc4[nH]3)ccc2[nH]1,–,> 100 µM,> 100 µM,–,> 100 µM,> 100 µM,> 100 µM,–,–,–,75.7 µM,> 100 µM,> 100 µM
COc1ccc(C2OCCN2C)cc1 (stereo not drawn),–,> 100 µM,> 100 µM,–,> 100 µM,> 100 µM,> 100 µM,–,–,–,> 100 µM,> 100 µM,> 100 µM
COC(=O)[C@@](C)(COC(=O)C(C)(C)C)NC(=O)OC(C)(C)C,–,> 100 µM,> 100 µM,–,> 100 µM,> 100 µM,> 100 µM,–,–,–,> 100 µM,> 100 µM,> 100 µM
COc1ccc2nc3c(c(NCCCN(C)C)c2c1)CCCC3,–,58.4 µM,–,21.4 µM,18.5 µM,29 µM,17.2 µM,20.4 µM,28.7 µM,28.7 µM,36.3 µM,–,–
O=C1Nc2cc([N+](=O)[O-])c(Br)cc2C1=O,–,> 100 µM,44.1 µM,50.1 µM,30.5 µM,14.3 µM,–,24.6 µM,–,33.2 µM,> 100 µM,–,–
Cc1nc2n(c1/C=C1/C(=O)Nc3ccccc31)CCS2,–,> 100 µM,> 100 µM,–,> 100 µM,> 100 µM,> 100 µM,–,–,–,> 100 µM,> 100 µM,> 100 µM
CC1(C)C2CCC3(OCCO3)C1C(O)C2 (stereo not drawn),> 100 µM,–,> 100 µM,> 100 µM,> 100 µM,> 100 µM,> 100 µM,> 100 µM,> 100 µM,> 100 µM,> 100 µM,–,–
O=S(=O)(O)c1cccc2cccc(N=Nc3c(O)ccc4ccccc34)c12,–,> 100 µM,> 100 µM,–,> 100 µM,> 100 µM,> 100 µM,–,–,–,> 100 µM,> 100 µM,> 100 µM
Cc1cn(C2CC(CCCO)C(CO)O2)c(=O)[nH]c1=O (stereo not drawn),–,> 100 µM,> 100 µM,–,> 100 µM,> 100 µM,> 100 µM,> 100 µM,> 100 µM,–,> 100 µM,–,–
N#C/C(=C\c1cccc(O)c1O)C(N)=O,–,93.7 µM,> 100 µM,> 100 µM,> 100 µM,> 100 µM,> 100 µM,95.6 µM,> 100 µM,> 100 µM,> 100 µM,–,–

# Source: PubChem BioAssay (NCI)
